# Patent publication US20130310352A1, “DEXAMETHASONE COMBINATION THERAPY” (priority 2010, published 2013)
# Key:
# [1] = system: MM cell lines ARP1, ARK, MM.1S, MM.1R and U266; test: MTS cell growth assay, all tested MM cell lines; type: cell-based, human; conditions: 0 to 1 mM, 1 or 3 days
# Description: (§1) MM cell lines ARP1, ARK, MM.1S, MM.1R and U266 were maintained in RPMI-1640 medium supplemented with 10% fetal bovine serum, 100 U/ml penicillin and 100 μg/ml streptomycin at 37° C. and 5% CO2 Primary MM cells and MM BMSCs were isolated from bone marrow aspirates of myeloma patients. PBMCs were obtained from healthy volunteers. The study was approved by the Institutional Review Board at The University of Texas M.D. Anderson Cancer Center. Anti-caspase-3, caspase-9, PARP, Bim, XIAP, cyclin D1, pp 70S6K (Thr389) and p27(Kip1) antibodies were purchased from Cell Signaling. Anti-bcl-2, Bc1-XL, Akt, pAkt (Thr 308), pAkt (Ser 473), p70S6K and β-actin antibodies were purchased from Santa Cruz. Compound A was dissolved in DMSO at 10 mM as stock solution. Dexamethasone and Propidium iodide (PI) were purchased from Sigma-Aldrich. Recombinant human IL6 was purchased from R&D Systems. FITC conjugated Annexin V was obtained from Invitrogen.
# (§2) All experiments were performed in triplicate.
# (A). Five MM cell lines ARP1, ARK, MM.1S, MM.1R and U266 were cultured in the presence of 0 to 1 mM compound A. Cells were harvested after 1 day or 3 days of treatment. Compound A induced MM cell apoptosis were measured by Annexin V staining as described in Materials and Methods. (B). Same MM cell lines were treated with 0 to 1 mM compound A for 1 or 3 days. Cell growths were assessed by MTS assay. (C). […]
# [2] = system: BimS, XIAP and Bc1-XL in MM cells; test: Immunoblotting, apoptosis regulatory factors; type: cell-based, human; conditions: 10 μM compound A
# Description: as §1
# Next, the expressions of apoptosis regulatory factors was tested. […] Bim is a pro-apoptotic factor belonging to Bc1-2 family (O'Connor L, Strasser A, O'Reilly L A, et al. Bim: a novel member of the Bc1-2 family that promotes apoptosis. EMBO J. 1998; 17 (2):384-395). Bim has three major isoforms generated by alternative splicing, BimEL, BimL and BimS. The shortest form BimS is the most cytotoxic isoform (Weber A, Paschen S A, Heger K, et al. BimS-induced apoptosis requires mitochondrial localization but not interaction with anti-apoptotic Bel-2 proteins. J. Cell Biol. 2007; 177 (4):625-636). Previous work has shown that the transcription of Bim is regulated by the forkhead transcription factor FKHR-L1, a downstream effector of PI3K (Dijkers P F, Medema R H, Lammers J W, Koenderman L, Coffer P J. Expression of the pro-apoptotic Bc1-2 family member Bim is regulated by the forkhead transcription factor FKHR-L1. Curr Biol. 2000; 10 (19):1201-1204). […] Thus, compound A induced MM cell apoptosis may be caused by up-regulation of cytotoxic BimS and down-regulation of anti-apoptotic XIAP and Bc1-XL.
# (A). […]
# [3] = system: MM cells ARP1, MM.1S and MM.1R; test: Low-dose single agents, apoptosis; type: cell-based, human; conditions: 1 μM compound A alone, 1 day
# Description: (§3) Compound A-induced cell apoptosis was detected by Annexin V binding assay as previously described (Zheng Y, Cai Z, Wang S, et al. Macrophages are an abundant component of myeloma microenvironment and protect myeloma cells from chemotherapy drug-induced apoptosis. Blood. 2009; 114 (17):3625-3628). Briefly, MM cells were cultured in 24-well plates and treated with 0 to 1 mM final concentrations of compound A for 24 or 72 hours. The cells were washed twice with cold PBS and resuspended in Annexin V binding buffer (Invitrogen). MM cells were stained with FITC-conjugated Annexin V and propidium iodide (PI) for 15 min at room temperature. Apoptotic cells were determined as Annexin V positive cells.
# Next, the experiment was extended to other MM cell lines, and they were treated with low compound A (1 μM) and dexamethasone (40 μg/ml).
# ARP1 cells were treated with 10 μM compound A (BK), 15 nM melphalan (Me), 40 μg/ml dexamethasone (De), 100 μM lenalidomide (Le), 10 μM Bortizomib (BT), or their combinations for 1 day. The cell apoptosis were measured as described. […] Cell apoptosis was measured. […] Same MM cell lines were treated with compound A for 1 day and cell growth were measured by MTS. […] Cell apoptosis were measured by annexin V staining. […] Cells apoptosis rates were measured by annxin V staining. […]
# U266 [4] = test: Annexin V apoptosis assay; type: cell-based, human
# Description: Apoptotic cells were determined as Annexin V positive cells. […] Compound A induced MM cells apoptosis were measured as described in Materials and Methods.
# [5] = system: PI3K-Akt-mTOR pathway in MM cells; test: Immunoblotting, PI3K-Akt-mTOR pathway; type: cell-based, human
# Description: as §1
# To further analyze the signaling pathways that were affected by compound A exposure in MM cells, immunoblotting was extended to other cell signaling molecules. First, the inhibitory effect of compound A on PI3K-Akt-mTOR pathway in MM cells was tested. […] This is probably because of increased apoptotic cells after compound A treatment. […] Such findings indicate that compound A inhibits PI3K-Akt-mTOR pathways in MM cells.
# (A). […] Compound A induced activation and cleavage of caspase-3, caspase-9 and PARP is shown. (B). Same MM cells treated with 10 μM compound A were lysed for western blotting. (C) RP1 cells were treated with 10 μM compound A for 1, 6, 12 and 24 hours.
# [6] = system: normal PBMCs from healthy volunteers; test: Apoptosis of normal PBMCs; type: cell-based, human; conditions: 24 hours
# Description: as §1
# Apoptotic cells were determined as Annexin V positive cells.
# To examine whether compound A induces normal PBMCs apoptosis, normal PBMCs from different healthy volunteers were incubated with 0 to 1 mM compound A for 24 hours. Cells apoptosis rate were measured as described above. […] Thus, these findings indicate that compound A has low cytotoxicity toward resting PBMCs.
# (A). Five MM cell lines ARP1, ARK, MM.1S, MM.1R and U266 were cultured in the presence of 0 to 1 mM compound A. Cells were harvested after 1 day or 3 days of treatment. Compound A induced MM cell apoptosis were measured by Annexin V staining as described in Materials and Methods. (B). Same MM cell lines were treated with 0 to 1 mM compound A for 1 or 3 days. Cell growths were assessed by MTS assay. (C). Representative histograms of primary MM cells treated with compound A. (D). Data from 3 patients showing a dose-dependent induction of apoptosis in freshly isolated primary MM cells. Cells were treated with different doses of compound A for 1 day. (E). PBMCs isolated from 3 healthy volunteers were treated with compound A for 1 day.
# [7] = system: CD138− stromal cells (BMSCs); test: Cytotoxicity toward stromal cells in primary MM coculture; type: cell-based, human; conditions: 0 to 1 mM, 24 hours, versus primary MM cells
# Description: MM cell lines ARP1, ARK, MM.1S, MM.1R and U266 were maintained in RPMI-1640 medium supplemented with 10% fetal bovine serum, 100 U/ml penicillin and 100 μg/ml streptomycin at 37° C. and 5% CO2 Primary MM cells and MM BMSCs were isolated from bone marrow aspirates of myeloma patients. PBMCs were obtained from healthy volunteers. […] Compound A was dissolved in DMSO at 10 mM as stock solution. […] FITC conjugated Annexin V was obtained from Invitrogen.
# as §3
# To evaluate compound A function in primary MM cells, the study was extended to CD138+ primary MM cells freshly isolated from myeloma patients. […]
# U266 [8] = test: MTS cell growth assay; type: cell-based; conditions: Homo sapiens, U-266, U266, 24 hours treatment, read-out: IC50 (concentration at 50% inhibition), cell growth
# Description: as §1, §2
# ARP1 = test: MTS cell growth assay; type: cell-based; conditions: Homo sapiens, ARP-1, ARP1, 24 hours treatment, read-out: IC50 (concentration at 50% inhibition), cell growth
# Description: as §1, §2
# MM.1R = test: MTS cell growth assay; type: cell-based; conditions: Homo sapiens, 24 hours treatment, read-out: IC50 (concentration at 50% inhibition), cell growth
# Description: as §1, §2
# MM.1S = test: MTS cell growth assay; type: cell-based; conditions: Homo sapiens, MM1.S, 24 hours treatment, read-out: IC50 (concentration at 50% inhibition), cell growth
# Description: as §1, §2
compound,measurement,setting,value
"Nc1cc(C(F)(F)F)c(-c2cc(N3CCOCC3)nc(N3CCOCC3)n2)cn1 [compound A, 5-(2,6-di-morpholin-4-yl-pyrimidin-4-yl)-4-trifluoromethyl-pyridin-2-ylamine]",MM cells growth inhibition,[1],dose dependent growth inhibition
same,Bc1-XL expression,[2],down-regulated
same,BimS expression,[2],up-regulated
same,XIAP expression,[2],down-regulated
same,cytotoxic effect of low dose alone,[3],only limited cytotoxic effect
same,sensitivity to compound A induced apoptosis compared to other MM cell lines,U266 [4],less sensitive
same,p-Akt at Ser473 and Thr308,[5]; 10 μM compound A,down-regulated
same,total Akt levels,"[5]; ARP1 and MM.1R cells, 10 μM",decreased
same,p-P70S6K levels,"[5]; tested MM cell lines, 10 μM",decreased
same,total P70S6K expression,"[5]; tested MM cell lines, 10 μM",remained constant
same,toxicity toward normal PBMCs,[6]; 0 to 1 mM,comparably low toxicity
same,PBMC apoptosis,[6]; 10 μM,less than 40%
same,PBMC apoptosis,[6]; 100 μM,less than 40%
same,cytotoxicity toward CD138− stromal cells,[7],significantly lower cytotoxicity
same,IC50,U266 [8],10 to 100 µM
same,IC50,ARP1,1 to 10 µM
same,IC50,MM.1R,1 to 10 µM
same,IC50,MM.1S,< 1 µM
